Measurements as given in ChEMBL document CHEMBL5380842, “Discovery of a Potent and Selective CCR8 Small Molecular Antagonist IPG7236 for the Treatment of Cancer” (J Med Chem, 2023).
≈ marks a conversion by molar mass, not a printed value.

Assays:
[1] = molecular target: C-C chemokine receptor type 8 (Homo sapiens, UniProt P51685); test: Antagonist activity against CCR8 (unknown origin) expressed in CHO-K1 cells preincubated for 1 hr followed by CCL1 addition measured after 24 hrs by ONE-Glo assay; format: cell-based
[2] = Efflux ratio of apparent permeability across basolateral to apical side over apical to basolateral side in human Caco-2 cells at 10 uM incubated for 120 mins by LC-MS/MS analysis
[3] = Apparent permeability of compound across apical to basal side in human Caco2 cells at 10 uM incubated for 120 mins by LC-MS/MS analysis; settings: Caco-2
[4] = Apparent permeability of compound across basal to apical side in human Caco2 cells at 10 uM incubated for 120 mins by LC-MS/MS analysis; settings: Caco-2
[5] = Solubility of compound in PBS at pH 7.4 incubated for 2 hrs by LC-MS/MS analysis; format: physicochemical

Sequence of C-C chemokine receptor type 8 (P51685 whole entry): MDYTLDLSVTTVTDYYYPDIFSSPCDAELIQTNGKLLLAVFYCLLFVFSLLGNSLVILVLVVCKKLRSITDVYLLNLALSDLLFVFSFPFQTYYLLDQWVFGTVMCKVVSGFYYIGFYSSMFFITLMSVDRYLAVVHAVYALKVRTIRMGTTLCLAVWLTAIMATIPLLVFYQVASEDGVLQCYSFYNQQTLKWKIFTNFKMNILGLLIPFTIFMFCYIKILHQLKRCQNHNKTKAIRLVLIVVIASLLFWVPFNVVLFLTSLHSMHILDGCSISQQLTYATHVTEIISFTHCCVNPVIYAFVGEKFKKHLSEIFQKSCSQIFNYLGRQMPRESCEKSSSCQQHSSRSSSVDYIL

SMILES | IC50 [1] [nM] | efflux ratio at 2 h, 10 µM [2] | Papp A→B at 2 h, 10 µM [3] [×10⁻⁶ cm/s] | Papp B→A at 2 h, 10 µM [4] [×10⁻⁶ cm/s] | solubility at 2 h [5] [µM]
Cc1ccccc1C(=O)Nc1ccc(S(=O)(=O)NC2CCN(C(=O)N3CCN(C)CC3)CC2)c2ccccc12 | 4 |  |  |  | 
CCCC(=O)N1CCCC(CNS(=O)(=O)c2ccc(NC(=O)c3ccccc3C)c3ccccc23)C1 (stereo not given) | > 1000 |  |  |  | 
CCCN1CCCN(c2cc(NS(=O)(=O)c3ccc(NC(=O)c4ccccc4C)c4ccccc34)ccc2OC)CC1 | > 1000 |  |  |  | 
CCCN1CCN(c2ccc(C)c(NS(=O)(=O)c3ccc(NC(=O)c4ccccc4C)c4ccccc34)c2)CC1 | > 1000 |  |  |  | 
CCCN1CCN(c2cccc(NS(=O)(=O)c3ccc(NC(=O)c4ccccc4C)c4ccccc34)c2C)CC1 | > 1000 |  |  |  | 
Cc1cc(S(=O)(=O)N[C@H](C)C2CCN(C)CC2)ccc1NC(=O)C1CCCCCC1 | 28 | 8.9 | 2 | 17.7 | 
Cc1ccccc1C(=O)Nc1ccc(S(=O)(=O)Nc2cccc3c2N(CCN(C)C)C(=O)CO3)c2ccccc12 | > 1000 |  |  |  | 
CCCC(=O)N1CCCC(C(=O)NS(=O)(=O)c2ccc(NC(=O)c3ccccc3C)c3ccccc23)C1 (stereo not given) | > 1000 |  |  |  | 
CCCN1CCN(c2ccc(OC)c(NS(=O)(=O)c3ccc(NC(=O)c4ccccc4C)c4ccccc34)c2)CC1 | > 1000 |  |  |  | 
Cc1ccccc1C(=O)Nc1ccc(S(=O)(=O)NC(C)C2CCCCN2)c2ccccc12 (stereo not given) | > 1000 |  |  |  | 
Cc1ccccc1C(=O)Nc1ccc(S(=O)(=O)N[C@H](C)C23CCN(CC2)CC3)c2ccccc12 | 303 |  |  |  | 

Results, then the molecule that gave them:

IC50 [1] [nM] | efflux ratio at 2 h, 10 µM [2] | Papp A→B at 2 h, 10 µM [3] [×10⁻⁶ cm/s] | Papp B→A at 2 h, 10 µM [4] [×10⁻⁶ cm/s] | solubility at 2 h [5] [µM] | SMILES
33 | 13.5 | 0.2 | 2.7 |  | Cc1ccccc1C(=O)Nc1ccc(S(=O)(=O)N[C@H](C)C2CCN(C)CC2)cc1C#N
1.7 | 19.6 | 1.6 | 31.4 |  | Cc1cc(S(=O)(=O)N[C@H](C)C2CCN(C)CC2)ccc1NC(=O)c1cc(Cl)ccc1C
1.7 | 17.6 | 1.1 | 19.4 |  | Cc1cc(S(=O)(=O)N[C@H](C)C2CCN(C)CC2)ccc1NC(=O)c1ccc(Cl)cc1C
 |  | 2 | 25.5 |  | Cc1cc(S(=O)(=O)N[C@H](C)C2CCN(C)CC2)c(Cl)cc1NC(=O)c1ccccc1C
 |  | 1.5 | 25.9 |  | CCc1cc(S(=O)(=O)N[C@H](C)C2CCN(C)CC2)ccc1NC(=O)c1ccccc1C
251 |  |  |  |  | Cc1cc(S(=O)(=O)NCC2CCN(C)CC2)ccc1NC(=O)c1ccccc1C
 |  | 2.2 | 30.4 |  | CCCN1CCC([C@@H](C)NS(=O)(=O)c2ccc(NC(=O)c3ccccc3C)c(C)c2)CC1
6 | 9 | 2.2 | 19.8 |  | Cc1cc(S(=O)(=O)N[C@H](C)C2CCN(C)CC2)c(F)cc1NC(=O)c1ccccc1C
79 |  |  |  |  | COCCN1CCC([C@@H](C)NS(=O)(=O)c2ccc(NC(=O)c3ccccc3C)c(C)c2)CC1
 |  | 0.7 | 25.9 | 233 (≈ 105 µg/mL) | Cc1ccccc1C(=O)Nc1ccc(S(=O)(=O)N[C@H](C)C2CCN(C)CC2)cc1Cl
 | 17.7 | 1.1 | 19.5 | 247 (≈ 115 µg/mL) | Cc1ccccc1C(=O)Nc1c(C)cc(S(=O)(=O)N[C@H](C)C2CCN(C)CC2)cc1Cl
 |  | 1.3 | 3.4 | < 3 | Cc1ccccc1C(=O)Nc1ccc(S(=O)(=O)N[C@H](C)C2CCN(C)CC2)c2ccccc12
 |  | 1 | 20.1 |  | Cc1cc(S(=O)(=O)N[C@H](C)C2CCN(C)CC2)c(C)cc1NC(=O)c1ccccc1C
129 |  |  |  |  | COC(=O)CN1CCC([C@@H](C)NS(=O)(=O)c2ccc(NC(=O)c3ccccc3C)c(C)c2)CC1
 |  | 0.3 | 3.6 |  | Cc1cc(S(=O)(=O)N[C@H](C2CC2)C2CCN(C)CC2)ccc1NC(=O)c1ccccc1C
 |  | 1.5 | 25.9 |  | Cc1cc(S(=O)(=O)N[C@H](C)C2CCN(C)CC2)ccc1NC(=O)c1ccsc1C
